# Experimental data as given in US20240246992A1, “MACROCYCLIC LRRK2 KINASE INHIBITORS” (LES LABORATOIRES SERVIER, priority 2021, published 2024).
# Where a name gives a salt, the structure may show the parent alone.
# Target: human recombinant LRRK2 protein (Homo sapiens, UniProt Q5S007)
# Test: LRRK2 kinase activity assay (ADP-Glo, LRRKtide peptide)
# Assay type: biochemical
# Conditions: human recombinant LRRK2 wt, LRRKtide peptide and ATP, 1 h at 37° C.
# Summary of the method: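 Human recombinant LRRK2 reacted with LRRKtide peptide and ATP for 1 h at 37 °C in the presence of compound. ADP formed measured by ADP-Glo luminescence; IC50 fitted from 10 concentrations run in duplicate.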
# Chain of human recombinant LRRK2 protein (Q5S007 whole entry): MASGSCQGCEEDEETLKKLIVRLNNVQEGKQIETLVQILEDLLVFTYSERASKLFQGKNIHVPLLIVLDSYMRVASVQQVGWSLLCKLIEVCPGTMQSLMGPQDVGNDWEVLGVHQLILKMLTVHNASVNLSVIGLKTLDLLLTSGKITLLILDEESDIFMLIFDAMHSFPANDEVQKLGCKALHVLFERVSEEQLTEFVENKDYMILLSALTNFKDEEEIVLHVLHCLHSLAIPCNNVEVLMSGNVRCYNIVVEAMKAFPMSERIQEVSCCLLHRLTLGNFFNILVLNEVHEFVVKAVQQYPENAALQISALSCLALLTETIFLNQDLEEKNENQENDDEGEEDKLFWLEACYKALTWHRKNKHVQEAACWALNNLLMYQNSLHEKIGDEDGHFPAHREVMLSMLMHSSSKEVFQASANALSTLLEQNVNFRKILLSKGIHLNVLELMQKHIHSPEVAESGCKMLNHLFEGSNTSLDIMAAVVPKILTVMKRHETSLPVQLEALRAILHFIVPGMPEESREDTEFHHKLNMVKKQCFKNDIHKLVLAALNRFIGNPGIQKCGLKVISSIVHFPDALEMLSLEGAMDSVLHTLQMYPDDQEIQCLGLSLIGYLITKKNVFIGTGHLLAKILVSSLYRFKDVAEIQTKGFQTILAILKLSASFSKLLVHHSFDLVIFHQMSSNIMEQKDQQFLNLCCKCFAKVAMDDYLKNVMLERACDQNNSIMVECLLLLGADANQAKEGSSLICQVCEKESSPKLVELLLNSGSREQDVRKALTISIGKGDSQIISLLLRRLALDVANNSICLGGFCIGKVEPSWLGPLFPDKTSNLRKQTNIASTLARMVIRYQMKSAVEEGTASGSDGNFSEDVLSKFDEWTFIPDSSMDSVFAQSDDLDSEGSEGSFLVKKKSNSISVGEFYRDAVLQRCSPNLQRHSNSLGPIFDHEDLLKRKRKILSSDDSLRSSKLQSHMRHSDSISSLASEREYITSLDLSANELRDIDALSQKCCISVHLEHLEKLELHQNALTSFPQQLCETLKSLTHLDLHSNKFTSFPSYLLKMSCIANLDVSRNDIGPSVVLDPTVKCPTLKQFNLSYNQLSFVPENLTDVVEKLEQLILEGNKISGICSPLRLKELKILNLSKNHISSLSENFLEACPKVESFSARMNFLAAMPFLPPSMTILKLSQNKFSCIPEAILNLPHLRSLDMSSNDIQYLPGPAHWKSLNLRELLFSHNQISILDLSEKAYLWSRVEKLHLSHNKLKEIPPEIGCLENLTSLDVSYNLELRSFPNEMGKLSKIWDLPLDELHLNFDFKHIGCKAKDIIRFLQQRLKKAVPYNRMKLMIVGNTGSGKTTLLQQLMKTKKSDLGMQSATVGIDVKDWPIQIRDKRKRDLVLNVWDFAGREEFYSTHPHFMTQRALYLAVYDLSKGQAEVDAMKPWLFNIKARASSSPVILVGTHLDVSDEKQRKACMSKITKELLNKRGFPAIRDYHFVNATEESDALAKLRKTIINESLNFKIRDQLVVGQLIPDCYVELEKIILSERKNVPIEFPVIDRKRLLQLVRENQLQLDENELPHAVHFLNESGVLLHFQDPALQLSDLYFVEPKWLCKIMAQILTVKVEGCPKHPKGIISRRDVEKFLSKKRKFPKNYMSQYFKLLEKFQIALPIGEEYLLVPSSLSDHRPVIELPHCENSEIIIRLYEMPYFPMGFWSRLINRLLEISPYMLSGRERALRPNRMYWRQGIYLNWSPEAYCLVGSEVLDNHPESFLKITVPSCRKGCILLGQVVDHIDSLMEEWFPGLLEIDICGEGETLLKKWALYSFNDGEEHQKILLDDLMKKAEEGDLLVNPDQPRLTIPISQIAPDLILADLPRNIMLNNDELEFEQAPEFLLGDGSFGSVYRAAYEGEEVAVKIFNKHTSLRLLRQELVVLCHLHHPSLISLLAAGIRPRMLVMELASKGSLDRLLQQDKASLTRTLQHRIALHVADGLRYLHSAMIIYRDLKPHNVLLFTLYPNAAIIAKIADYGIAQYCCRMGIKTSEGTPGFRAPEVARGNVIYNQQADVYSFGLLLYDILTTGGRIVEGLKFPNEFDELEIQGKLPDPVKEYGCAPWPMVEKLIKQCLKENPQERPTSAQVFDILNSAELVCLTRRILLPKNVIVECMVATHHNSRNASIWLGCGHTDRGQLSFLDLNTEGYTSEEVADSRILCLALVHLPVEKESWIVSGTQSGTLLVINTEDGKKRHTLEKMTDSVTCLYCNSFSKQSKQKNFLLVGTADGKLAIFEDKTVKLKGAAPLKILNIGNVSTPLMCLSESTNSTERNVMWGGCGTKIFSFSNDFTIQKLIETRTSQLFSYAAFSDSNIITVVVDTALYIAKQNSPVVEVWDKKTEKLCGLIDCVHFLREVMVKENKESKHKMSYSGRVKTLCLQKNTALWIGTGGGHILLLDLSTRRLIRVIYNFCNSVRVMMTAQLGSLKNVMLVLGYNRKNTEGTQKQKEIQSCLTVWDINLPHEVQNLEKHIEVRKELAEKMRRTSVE
row,Structure (SMILES),IC50 [nM]
1,"C[C@@H]1COCCOCCn2cc(cc2C#N)-c2n[nH]c3ccc(cc23)O1 [Example 82, (13R)-13-methyl-8,11,14-trioxa-5,19,20-triazatetracyclo[13.5.2.1^2,5.0^18,21] tricosa-1(20),2(23),3,15(22),16,18(21)-hexaene-4-carbonitrile]",< 100
2,"O=C1CCc2cncc(c2)-c2n[nH]c3ccc(cc23)OCCCN1 [Example 220, 14-oxa-4,10,19,20-tetraazatetracyclo[13.5.2.1^2,6.0^18,21]tricosa-1(20),2(23),3,5,15(22),16,18(21)-heptaen-9-one]",< 10
3,"C[C@@H]1CCOCCOCC2=NC=C(S2)c2n[nH]c3ccc(cc23)O1 [Example 75, (13R)-13-methyl-7,10,14-trioxa-23-thia-4,19,20-triazatetracyclo[13.5.2.1^2,5.0^18,21]tricosa-1(20),2,4,15(22),16,18(21)-hexaene]",< 10
4,"c1cc2[nH]nc3c2cc1OCCOCCCOCc1ncc-3s1 [Example 84, 7,11,14-trioxa-23-thia-4,19,20-triazatetracyclo[13.5.2.1^2,5.0^18,21]tricosa-1(20),2,4,15(22), 16,18(21)-hexaene]",< 10
5,"O=C1COc2cccc(c2)-c2n[nH]c3ccc(cc23)OCCCN1 [Example 134, 7,14-dioxa-10,19,20-triazatetracyclo[13.5.2.1^2,6.0^18,21]tricosa-1(20),2(23), 3,5,15(22),16,18(21)-heptaen-9-one]",< 100
6,"C[C@@H]1OCCOC[C@H](C)Oc2ccc3[nH]nc(c3c2)-c2cncc1c2 [Example 9, (7S,13S)-7,13-dimethyl-8,11,14-trioxa-4,19,20-triazatetracyclo[13.5.2.1^2,6.0^18,21]tricosa-1(20),2(23),3,5,15(22),16,18(21)-heptaene]",< 100
7,"O=C1CCc2cc(F)cc(c2)-c2n[nH]c3ccc(cc23)OCCCN1 [Example 219, 4-fluoro-14-oxa-10,19,20-triazatetracyclo[13.5.2.1^2,6.0^18,21]tricosa-1(20),2(23),3,5,15(22),16,18(21)-heptaen-9-one]",< 10
8,"C[C@@H]1COCCn2cc(cn2)-c2n[nH]c3ccc(cc23)OCCO1 [Example 70, (10R)-10-methyl-8,11,14-trioxa-4,5,19,20-tetraazatetracyclo[13.5.2.1^2,5.0^18,21]tricosa-1(20),2(23),3,15(22),16,18(21)-hexaene]",< 100
9,"O=C1COc2cc(F)cc(c2)-c2n[nH]c3ccc(cc23)OCCCN1 [Example 195, 4-fluoro-7,14-dioxa-10,19,20-triazatetracyclo[13.5.2.1^2,6.0^18,21]tricosa-1(20),2(23),3,5,15(22),16,18(21)-heptaen-9-one]",< 10
10,"CN1CCCOc2ccc3[nH]nc(c3c2)-c2cc(ccn2)OCC1=O [Example 194, 10-methyl-7,14-dioxa-3,10,19,20-tetraazatetracyclo[13.5.2.1^2,6.0^18,21]tricosa-1(20),2(23),3,5,15(22),16,18(21)-heptaen-9-one]",< 1000
11,"C[C@@H]1CCOCCCOc2ccc3[nH]nc(c3c2)-c2cnn1c2 [Example 8, (6R)-6-methyl-9,13-dioxa-4,5,18,19-tetraazatetracyclo[12.5.2.1^2,5.0^17,20] docosa-1(19),2(22),3,14(21),15,17(20)-hexaene]",< 10
12,"C[C@@H]1CCOCCCn2cc(cn2)-c2n[nH]c3ccc(cc23)O1 [Example 42, (12R)-12-methyl-9,13-dioxa-4,5,18,19-tetraazatetracyclo [12.5.2.1^2,5.0^17,20]docosa-1(19),2(22),3,14(21),15,17(20)-hexaene]",< 10
13,"C[C@H]1CCOC[C@H](C)Oc2nccc(n2)-c2n[nH]c3ccc(cc23)O1 [Example 46, (8S,13S)-8,13-dimethyl-7,10,14-trioxa-5,19,20,23-tetraazatetracyclo [13.5.2.1^2,6.0^18,21]tricosa-1(20),2(23),3,5,15(22),16,18(21)-heptaene]",< 100
14,"C[C@H]1COc2ccc3[nH]nc(c3c2)-c2cc(C#N)n(c2)CCOCCO1 [Example 85, (12S)-12-methyl-8,11,14-trioxa-5,19,20-triazatetracyclo[13.5.2.1^2,5.0^18,21] tricosa-1(20),2(23),3,15(22),16,18(21)-hexaene-4-carbonitrile]",< 10
15,"C[C@H]1COCCCOc2nccc(n2)-c2n[nH]c3ccc(cc23)O1 [Example 26, (13S)-13-methyl-7,11,14-trioxa-5,19,20,23-tetraazatetracyclo[13.5.2.1^2,6.0^18,21]tricosa-1(20),2(23),3,5,15(22),16,18(21)-heptaene]",< 10
16,"C[C@@H]1COc2ccc3[nH]nc(c3c2)-c2cc(C#N)n(c2)CCOCCO1 [Example 86, (12R)-12-methyl-8,11,14-trioxa-5,19,20-triazatetracyclo [13.5.2.1^2,5.0^18,21]tricosa-1(20),2(23),3,15(22),16,18(21)-hexaene-4-carbonitrile]",< 10

row,Structure (SMILES),IC50 [nM]
1,"O=C1COc2cc(cc(N3C[C@@H](F)[C@H](F)C3)c2)-c2n[nH]c3ccc(cc23)OCCCN1 [Example 216, 4-[(3R,4R)-3,4-difluoropyrrolidin-1-yl]-7,14-dioxa-10,19,20-triazatetracyclo[13.5.2.1^2,6.0^18,21]tricosa-1(20),2(23),3,5,15,17,21-heptaen-9-one]",< 10
2,"c1cc2cc(c1)-c1n[nH]c3ccc(cc13)OCCCNCCC2 [Example 167, 14-oxa-10,19,20-triazatetracyclo[13.5.2.1^2,6.0^18,21]tricosa-1(20),2(23),3,5,15(22),16,18(21)-heptaene]",< 10
3,"C[C@@H]1CCO[C@@H](C)CCOc2ccc3[nH]nc(c3c2)-c2cnn1c2 [Example 116, (6R,10S)-6,10-dimethyl-9,13-dioxa-4,5,18,19-tetraazatetracyclo[12.5.2.1^2,5.0^17,20]docosa-1(19),2(22),3,14(21),15,17(20)-hexaene]",< 100
4,"C[C@H]1CCNCCCn2cc(cn2)-c2n[nH]c3ccc(cc23)O1 [Example 233, (12S)-12-methyl-13-oxa-4,5,9,18,19-pentaazatetracyclo [12.5.2.1^2,5.0^17,20] docosa-1(19),2(22),3,14(21),15,17(20)-hexaene]",< 10
5,"Cc1cc2[nH]nc3c2cc1OCCCNC(=O)COc1cncc-3c1 [Example 187, 16-methyl-7,14-dioxa-4,10,19,20-tetraazatetracyclo[13.5.2.1^2,6.0^18,21]tricosa-1(20),2(23),3,5,15(22),16,18(21)-heptaen-9-one]",< 100
6,"CN1CCOc2ccc3[nH]nc(c3c2)-c2cccc(c2)OCCC1=O [Example 221, 11-methyl-7,14-dioxa-11,19,20-triazatetracyclo[13.5.2.1^2,6.0^18,21] tricosa-1(20),2(23),3,5,15,17,21-heptaen-10-one]",< 100
7,"C[C@@H]1COCCOCCOc2ccc3[nH]nc(c3c2)-c2cnn1c2 [Example 65, (6R)-6-methyl-8,11,14-trioxa-4,5,19,20-tetraazatetracyclo[13.5.2.1^2,5.0^18,21] tricosa-1(20),2(23),3,15(22),16,18(21)-hexaene]",< 10
8,"C[C@H]1COc2ccc3[nH]nc(c3c2)-c2cnn(c2)CCOCCO1 [Example 54, (12S)-12-methyl-8,11,14-trioxa-4,5,19,20-tetraazatetracyclo[13.5.2.1^2,5.0^18,21]tricosa-1(20),2(23),3,15(22),16,18(21)-hexaene]",< 10
9,"C[C@@H]1CCNC(=O)COc2cncc(c2)-c2n[nH]c3ccc(cc23)O1 [Example 162, (13R)-13-methyl-7,14-dioxa-4,10,19,20-tetraazatetracyclo[13.5.2.1^2,6.0^18,21]tricosa-1(20),2,4,6(23),15(22),16,18(21)-heptaen-9-one]",< 100
10,"Cc1cc2cc(c1)-c1n[nH]c3ccc(cc13)OCCCNC(=O)CO2 [Example 144, 4-methyl-7,14-dioxa-10,19,20-triazatetracyclo[13.5.2.1^2,6.0^18,21]tricosa-1(20),2(23),3,5,15,17,21-heptaen-9-one]",< 10
11,"O=C1COc2cc(cc(C3CCCOC3)c2)-c2n[nH]c3ccc(cc23)OCCCN1 (centres unmarked) [Example 148, 4-(oxan-3-yl)-7,14-dioxa-10,19,20-triazatetracyclo[13.5.2.1^2,6.0^18,21]tricosa-1(20),2(23),3,5,15,17,21-heptaen-9-one]",< 10
12,"c1cc2[nH]nc3c2cc1NCCOCCOc1cc-3cc(N2CCOCC2)c1 [Example 1, 4-(morpholin-4-yl)-7,10-dioxa-13,18,19-triazatetracyclo[12.5.2.1^2,6.0^17,20] docosa-1(19),2(22),3,5,14(21),15,17(20)-heptaene]",< 10
13,"C[C@@H]1COCCO[C@H](C)c2cncc(c2)-c2n[nH]c3ccc(cc23)O1 [Example 13, (7R,13R)-7,13-dimethyl-8,11,14-trioxa-4,19,20-triazatetracyclo[13.5.2.1^2,6. 0^18,21]tricosa-1(20),2(23),3,5,15(22),16,18(21)-heptaene hydrochloride]",< 100
14,"C[C@@H]1C[C@H](C)OCCCOc2ccc3[nH]nc(c3c2)-c2cnn1c2 [Example 132, (6R,8S)-6,8-dimethyl-9,13-dioxa-4,5,18,19-tetraazatetracyclo[12.5.2.1^2,5.0^17,20]docosa-1(19),2(22),3,14(21),15,17(20)-hexaene]",< 100
15,"C[C@H]1COCCCOCc2nc(cn2C)-c2n[nH]c3ccc(cc23)O1 [Example 119, (13S)-4,13-dimethyl-7,11,14-trioxa-4,19,20,23-tetraazatetracyclo [13.5.2.1^2,5.0^18,21]tricosa-1(20),2,5(23),15(22),16,18(21)-hexaene]",< 1000
16,"c1cc2nc(c1)-c1n[nH]c3ccc(cc13)OCCCNCCO2 [Example 237, 7,14-dioxa-10,19,20,23-tetraazatetracyclo[13.5.2.1^2,6.0^18,21]tricosa-1(20),2,4,6(23),15,17,21-heptaene]",< 10
